The results in this text go back to paper PMC7279002, “Novel 3′-Substituted-1′,2′,4′-Oxadiazole Derivatives of 18βH-Glycyrrhetinic Acid and Their O-Acylated Amidoximes: Synthesis and Evaluation of Antitumor and Anti-Inflammatory Potential In Vitro and In Vivo” (International Journal of Molecular Sciences, 2020).

The test system of data set [1] is HeLa cells. In words: Apoptosis assay by flow cytometry (annexin V-FITC/PI). In kind it is cell-based, human. As to conditions: 48 h. The method, then: HeLa cells were seeded in 24-well plates at density of 5 × 10^4 cells per well and incubated under standard conditions for 24 h. Next, the cells were treated by compound 5f at 7 or 10 µM for a subsequent 48 h, followed by dissociation of cell monolayers into single cells by TrypLE Express (Gibco, Taastrup, Denmark) - and washing with cold PBS. Thereafter, cells were resuspended in binding buffer at concentration of 10^6 cells/mL. After double staining with Annexin V-FITC and propidium iodide (PI) from an Annexin V-FITC Apoptosis Detection Kit (Millipore, Bedford, MA, USA), cells were analyzed using a NovoCyte Flow Cytometer (ACEA Biosciences Inc., San Diego, CA, USA). For each sample, 10,000 events were acquired.
(In general: A flow cytometer gives signals particle by particle.)

The test system of data set [2] is activated caspases in HeLa cells. In words: Metacaspases activity assay (FITC-VAD-FMK). It is filed as cell-based, human. The conditions noted are these: dose-dependent. The method, then:
The activity of caspases was determined by using a CaspACE^TM FITC-VAD-FMK (Promega, Madison, WI, USA). Briefly, HeLa cells were cultured in 24-well plates for 24 h under standard conditions and treated by 5f at 7 or 10 µM for 48 h. The cells were collected and incubated with fluorophore-conjugated pancaspase inhibitor FITC-VAD-FMK in darkness for 30 min at room temperature. After incubation, the cells were centrifuged, washed twice with PBS, and analyzed by flow cytometry. For each sample, 10,000 events were acquired.

The test system of data set [3] is HeLa cells. In words: Cell motility by xCelligence (CIM-plate). It is filed as cell-based, human. As to conditions: 0.5 µM, 48 h, nontoxic concentration. The method, then:
HeLa cells were seeded in tetraplicate at 2 × 10^4 cells per well in the upper chamber of CIM-plates, in the presence or absence of 5f at 0.5 µM. To stimulate cell migration, the lower chamber of the CIM-plate contained 10% FBS as chemoattractant. The cell index (electrical impedance) was monitored by the Real-Time Cell Analyzer Dual Plates (RTCA DP) xCelligence System (ACEA Biosciences, San Diego, CA, USA) every 1 h for 48 h.

Data set [4] in a line: Toxicity assessment in B16 melanoma-bearing mice. It is filed as in vivo. As to conditions: five injections, 50 mg/kg i.p. The method, then: To generate a metastatic model of tumor progression, 10^5 B16 melanoma cells suspended in 0.2 mL of saline buffer were inoculated into the lateral tail vein of C57Bl/6 mice. On day 4 after tumor transplantation, mice were divided into three groups (n = 9 per group): (1) mice without treatment (control); (2) mice who received intraperitoneal (i.p.) injections of 10% Tween-80 (vehicle); and (3) mice who received i.p. injections of 5f in 10% Tween-80 at a dose of 50 mg/kg. The treatment was carried out three times a week. The total number of injections was five. Mice were sacrificed on day 14 after B16 melanoma transplantation and the lungs were collected for calculation of surface metastases.
During the experiment, general status of the animals and body weight were monitored. At the end of the experiment, organs were collected and organ indexes were calculated as (organ weight / body weight) × 100%.

For data set [5], the system named is HeLa cells. Nature of the data set: Mitochondrial membrane potential (JC-1, flow cytometry). It is filed as cell-based, human. As to conditions: 48 h, JC-1, HeLa. The method, then:
HeLa cells were cultured in 24-well plates for 24 h under standard conditions and treated by 5f at 7 or 10 µM for a subsequent 48 h. After the treatment, the cells were collected and resuspended at 10^6 cells/mL in PBS-contained JC-1 (5 µg/mL). After 30 min of incubation under standard conditions, the cells were centrifuged, washed with PBS, and analyzed using the NovoCyte Flow Cytometer (ACEA Biosciences Inc., San Diego, CA, USA). In total, 10,000 events were acquired for each sample.

Entries after “also recorded” stand apart in the source; their conditions may differ.

Consider `CC1(C)C2CC[C@]3(C)C(C(=O)C=C4[C@@H]5C[C@@](C)(c6nc(-c7ccccn7)no6)CC[C@]5(C)CC[C@]43C)[C@@]2(C)CC[C@@H]1O` (stereo partly drawn) [Compound 5f, 30-nor-3β-hydroxy-11-oxo-20-(3′-(pyridin-2′′-yl)-1′,2′,4′-oxadiazol-5′-yl)-18βH-olean-12-en], for which the entries for the “early apoptotic cells (quadrant Q4-4)” value in the data set with HeLa cells [1] (7 µM) and in the data set with HeLa cells [1] (10 µM) were 12.5% and 8.1%, respectively. The “late apoptotic cells (quadrant Q4-2)” value with HeLa cells [1] (7 µM) stood at 60.7%; in the data set with HeLa cells [1] (10 µM) it was 66.5%. Besides, the “necrotic cells (quadrant Q4-1)” value in the data set on HeLa cells [1] (10 µM) was found to be 14.2%. In addition, the “metacaspase activation (FITC-VAD-FMK fluorescence)” value in data set [2] is “significantly increased the intensity of FITC fluorescence”. Further, the “effect on motility of HeLa cells” value with HeLa cells [3] is reported as “statistically significant suppressed the motility of HeLa cells”. In addition, the “survival during the experiment” value in data set [4] is listed as “all 5f-treated mice were alive”. Further, the “toxic effects in mice (organ indexes)” value in data set [4] (50 mg/kg) was “did not cause toxic and unspecific immunomodulatory effects; also recorded: without systemic toxicity”. The entries for the “cells with collapsed membrane potential (gate P3)” value in the data set on HeLa cells [5] (7 µM) and with HeLa cells [5] (10 µM) were 72.5% and 85.2%, respectively.
